Data taken from article PMC3620387, “Targeting the EGFR/PCNA Signaling Suppresses Tumor Growth of Triple-Negative Breast Cancer Cells with Cell-Penetrating PCNA Peptides” (PLoS ONE, 2013).

What was measured:
MDA-MB 231 cells [1] = test: WST-1 cell viability assay; assay type: cell-based, human; conditions: 24 h
Experimental: (§1) Cell viability was determined by WST-1 (4-[3-(4-Iodophenyl)-2-(4-nitrophenyl) -2H-5-tetrazolio]-1,3-benzene disulfonate) assay (Roche). Cells were incubated with or without TKI or CPPP. After culturing for another 24 h, one-tenth volume of WST-1 was added at 4 h before harvest, and the absorbance was detected at 450 nm. Cell viability was normalized by the absorbance from the cells without treatment.

MDA-MB 468 cells [2] = test: WST-1 cell viability assay; assay type: cell-based, human; conditions: 24 h
Experimental: as §1

MDA-MB 231 cells [3] = test: Apoptosis assay, Annexin V staining, flow cytometry; assay type: cell-based, human; conditions: 15 µM, 24 h
Experimental: (§2) For apoptosis assay using annexin V staining, cells treated with the CPPP for 24 h and the cells were harvested and resuspended in the binding buffer and then incubated with FITC-conjugated Annexin V and propidium iodide (PI), according to the manufacturer's protocol (BD Biosciences). The percentage of apoptotic cells were assessed by flow cytometry.

MDA-MB 468 cells [4] = test: as above; assay type: cell-based, human; conditions: 24 h
Experimental: as §2

MDA-MB 468 cells [5] = test: Subcutaneous MDA-MB 468 xenograft; assay type: in vivo, nude mice; conditions: 200 nmol/mouse, intratumoral injection; for tumor volume compared with control or scrambled peptides / tumor mass compared with control or scrambled peptide group: nude mice; for tumor volume compared with control or scrambled peptides: Fig. 5A, S1A; for tumor mass compared with control or scrambled peptide group: end of experiment, Fig. 5B, S1B
Experimental: (§3) For subcutaneous implantation, MDA-MB 468 cells (1×10^7 in 100 µL of sterile Dulbecco's phosphate-buffered saline; PBS) were inoculated into nude mice by subcutaneous injection into the flanks. Each group contained 4 mice that were inoculated with tumor cells on both flanks (n = 8). When the tumors were palpable, mice were grouped randomly into 3–4 groups with 4 mice in each group. The mice were then treated with control vehicle, control scrambled peptide, Y211F CPPP, RF6 CPPP, or D-RF6 CPPP, by intratumoral injection. For orthotopic implantation, tumor xenografts were established by injection of Iressa-resistant MDA-MB 468 (IR) cells (1×10^7 resuspended in a 1∶1 mixture of PBS and Matrigel (BD Biosciences) in a total volume of 100 µL) into the mammary fat pad on either side of each 6–8-week old female severe combined immunodeficient (SCID) mice, respectively. When the tumors were palpable, the mice bearing IR tumor xenografts were treated with control vehicle, control scrambled peptide, D-RF6 CPPP (200 nmol/mouse) by intraperitoneal injection. Tumor growth was monitored 3 times/week for five weeks by measuring tumor perpendicular diameters. Tumor volume (V) was calculated using the following formula: V = length×diameter^2×0.5.
(§4) Figure 5 The effect of CPPP on tumor growth in vivo. (A) Approximately 1×10^7 MDA-MB 468 cells were subcutaneously injected into the flanks of nude mice. When the tumors were palpable, mice were randomly divided into 4 groups and treated with PBS (Control), scrambled peptide for RF6 (Scramble), RF6 CPPP, or D-RF6 CPPP (200 nmol/mouse) by intratumoral injection. Tumor volume was measured the tumor volume at the indicated time point. (B) The weight of each of the harvested tumors from (A) was measured after treatment. (C) Approximately 1×10^7 Iressa-resistant MDA-MB 468 (MDA-MB 468/IR) cells were injected into the mammary fat pad on either side of SCID mice. When the tumors were palpable, mice were randomly divided into 3 groups and treated with PBS (Control), scrambled peptide for D-RF6 (Scramble), or D-RF6 CPPP (200 nmol/mouse) by intratumoral injection. Tumor volume was measured the tumor volume at the indicated time point. (D) The weight of each of the harvested tumors from (C) was measured after treatment. The curves and bars indicate mean ± S.D.; *, p<0.05; **, p<0.01; ***, p<0.001 by t-test. (E) Extracted tumor tissue lysates from (D), the protein levels of EGFR, p-Y211, PCNA and cleaved-caspase-3 were determined by IB.
Supplementary file pone.0061362.s001.tif: Figure S1 The effect of Y211F CPPP on tumor growth in vivo. (A) Approximately 1×10^7 MDA-MB 468 cells were subcutaneously injected into the flanks of nude mice. When the tumors were palpable, mice were randomly divided into 3 groups and treated with PBS (Control), scrambled peptide for Y211 (Scramble), or Y211F CPPP (200 nmol/mouse) by intratumoral injection. Tumor volume was measured the tumor volume at the indicated time point. (B) The weight of each of the harvested tumors was measured after treatment. The curves and bars indicate mean ± S.D.; *, p<0.05; **, p<0.01; ***, p<0.001 by t-test. (TIF) Click here for additional data file.

[6] = test system: Iressa-resistant MDA-MB 468 (MDA-MB 468/IR) cells; test: Orthotopic Iressa-resistant MDA-MB 468 xenograft (mammary fat pad); assay type: in vivo, SCID mice
Experimental: as §3, §4

MCF10A = test: WST-1 cell viability assay; assay type: cell-based; conditions: up to 50 µM, 24 h, WST-1, Fig. 1B
Experimental: as §1

nEGFR/PCNA = target: T1, nEGFR/PCNA (Homo sapiens, UniProt P00533); test: Immunoprecipitation/immunoblot of chromatin lysates: nEGFR binding to PCNA; assay type: cell-based; conditions: 30 µM, 24 h, IP anti-PCNA, IB, Fig. 2B
T1 construct: endogenous in cells; host or cells: MDA-MB 468 human TNBC cells (chromatin lysates)
Experimental: Cell extraction, immunoprecipitation and Western blotting were performed as described previously, [29].
The fluorescent images were observed under a confocal microscopy.

[7] = test system: Iressa-resistant MDA-MB 468 (IR); test: WST-1 cell viability assay; assay type: cell-based, human; conditions: 15 µM, 24 h, Fig. 3E
Experimental: (§5) Human triple-negative breast cancer (TNBC) cell lines (MDA-MB 468, and MDA-MB 231) were purchased from American Type Culture Collection. All cells were maintained in DMEM/F12 (1∶1) with 10% FBS. EGFR TKI-resistant TNBC cell lines: Iressa-resistant MDA-MB 468 (IR) and Tarceva-resistant MDA-MB 468 (TR) were established by treatment with gradually increasing concentrations of these drugs for over one month. These TKI-resistant clones were cultured in the presence of 1 µM TKIs. The following peptides were synthesized by MDBio, Inc: Y211F CPPP (Y211F; […]); AK10 CPPP (AK10; […]); TF10 CPPP (TF10; […]); TN8 CPPP (TN8; […]); RK8 CPPP (RK8; […]); RF6 CPPP (RF6; […]); D-RF6 CPPP (D-RF6; […]); Scrambled peptides for Y211F (Scramble; […]); Scrambled peptides for RF6 (Scramble; […]). […]
(§6) Cell viability was determined by WST-1 (4-[3-(4-Iodophenyl)-2-(4-nitrophenyl) -2H-5-tetrazolio]-1,3-benzene disulfonate) assay (Roche). […] After culturing for another 24 h, one-tenth volume of WST-1 was added at 4 h before harvest, and the absorbance was detected at 450 nm. Cell viability was normalized by the absorbance from the cells without treatment.
(§7) Figure 3 The cytotoxic effect of CPPP in TKI-resistant TNBC cells. […] (E–F) The P-, IR-, or TR-TNBC cells were treated with 15 µM Y211F CPPP for 24 h and the relative cell viability (E) and Annexin V-positive cells (F) were determined. […]

[8] = test system: Tarceva-resistant MDA-MB 468 (TR); test: WST-1 cell viability assay; assay type: cell-based, human; conditions: 15 µM, 24 h, Fig. 3E
Experimental: as §5, §6, §7

[9] = test system: Iressa-resistant MDA-MB 468 (IR); test: Apoptosis assay, Annexin V staining; assay type: cell-based, human; conditions: 15 µM, 24 h, Fig. 3F
Experimental: as §5, §2, §7

[10] = test system: Tarceva-resistant MDA-MB 468 (TR); test: Apoptosis assay, Annexin V staining; assay type: cell-based, human; conditions: 15 µM, 24 h, Fig. 3F
Experimental: as §5, §2, §7

MDA-MB 468 cells [11] = conditions: 30 µM FITC-labeled peptide, 12 h, anti-EGFR staining, confocal microscopy, Fig. 2A
Experimental: Confocal microscopy was performed as previously described [29].
(A) MDA-MB 468 cells were treated with 30 µM FITC-labeled scrambled (FITC-Scrambled; top) or Y211F CPPP (FITC-Y211F; bottom) for 12 h. Subsequently, cells were fixed, permeabilized, and stained with anti-EGFR antibody or DAPI. The fluorescent images were observed under a confocal microscopy. The FITC-labeled peptide (green), EGFR (red), and nucleus (blue) are shown.

[12] = extracted tumor tissue lysates, IB, Fig. 5E
[13] = 15 µM Y211F CPPP combined with 1∼8 µM EGFR TKI (Tarceva or Iressa), Fig. 2C-2F
[14] = indicated concentrations, WST-1, Fig. 1B

YGRKKRRQRRRGRFLNFF [D-RF6 CPPP, synthetic retro-inverted D form derivative of RF6 CPPP]
growth suppression (relative cell viability) compared with RF6 CPPP (MDA-MB 231 cells [1]; indicated concentrations, Fig. 4F): enhanced the growth suppression
growth suppression (relative cell viability) compared with RF6 CPPP (MDA-MB 468 cells [2]; indicated concentrations, Fig. 4E): enhanced the growth suppression
apoptosis activity (Annexin V-positive cells) (MDA-MB 231 cells [3]; Fig. 4G): enhanced the growth suppression and apoptosis activity
apoptosis activity (Annexin V-positive cells) (MDA-MB 468 cells [4]; 15 µM, flow cytometry, Fig. 4G): enhanced the growth suppression and apoptosis activity
activity in suppressing tumor growth and reducing tumor volume, on an equimolar basis (MDA-MB 468 cells [5]; compared with Y211F CPPP): more potent than Y211F CPPP
tumor mass compared with control or scrambled peptides ([6]; 200 nmol/mouse, SCID mice, harvested tumors, Fig. 5D): significantly reduced tumor volume and mass
tumor volume compared with control or scrambled peptides ([6]; 200 nmol/mouse, SCID mice, intratumoral (Fig. 5C legend) or intraperitoneal (methods) injection): significantly reduced tumor volume and mass
PCNA Y211 phosphorylation in tumor tissue [6, 12]: inhibited
cleaved caspase-3 in tumor tissue [6, 12]: cleaved caspase-3 increased

YGRKKRRQRRRGRFLNFF [RF6 CPPP]
relative cell viability (MDA-MB 468 cells [2]; 50 µM of each CPPP derivative, Fig. 4B): minimal effective peptide
apoptosis (Annexin V-positive cells) (MDA-MB 468 cells [4]; 50 µM of each CPPP derivative, Fig. 4C): minimal effective peptide
tumor volume compared with control or scrambled peptides (MDA-MB 468 cells [5]): significantly reduced tumor volume
tumor mass compared with control or scrambled peptide group (MDA-MB 468 cells [5]): significantly smaller tumor mass

YGRKKRRQRRRGTFALRFLNFFTK [Y211F CPPP]
relative cell viability, combination with EGFR TKI (MDA-MB 231 cells [1]; [13]): enhanced the effect of both TKIs
cancer cells killed (MDA-MB 231 cells [1]; 50 µM, WST-1, Fig. 1B): more than 80%
relative cell viability (MDA-MB 231 cells [1]; [14]): suppressed cell viability
relative cell viability, combination with EGFR TKI (MDA-MB 468 cells [2]; [13]): enhanced the effect of both TKIs
cancer cells killed (MDA-MB 468 cells [2]; 50 µM, WST-1, Fig. 1B): more than 80%
relative cell viability (MDA-MB 468 cells [2]; [14]): suppressed cell viability
relative cell viability (MCF10A): no effect
apoptotic response (Annexin V-positive cells) (MDA-MB 231 cells [3]; Fig. 1C): observed only in MDA-MB 468 and MDA-MB 231 cells
apoptotic response (Annexin V-positive cells) (MDA-MB 468 cells [4]; 15 µM, flow cytometry, Fig. 1C): observed only in MDA-MB 468 and MDA-MB 231 cells
nEGFR binding to PCNA on chromatin (nEGFR/PCNA): prevented nEGFR from binding PCNA
relative cell viability compared with parental cells [7]: more sensitive
relative cell viability compared with parental cells [8]: more sensitive
Annexin V-positive cells compared with parental cells [9]: more sensitive
Annexin V-positive cells compared with parental cells [10]: more sensitive
tumor volume compared with control or scrambled peptides (MDA-MB 468 cells [5]): significantly reduced tumor volume
tumor mass compared with control or scrambled peptide group (MDA-MB 468 cells [5]): significantly smaller tumor mass
targeting of EGFR (MDA-MB 468 cells [11]): specifically targeted EGFR
